Data taken from patent publication US20250154105A1, “POLYCYCLIC COMPOUND AND USE THEREOF” (TYK MEDICINES, INC., priority 2021, published 2025).

How the values were obtained:
[1] = Rat pharmacokinetic experiment; type: in vivo; conditions: po, male SD rats, gavage (p.o.), 10 mg/kg, plasma
Description: TEST EXAMPLE 3 PHARMACOKINETIC EXPERIMENT OF COMPOUNDS
Pharmacokinetic test of compounds T-32/T-105/T-253/T-272/T-273/T-277 of the present invention.
Experimental Protocol of Rat Pharmacokinetics
• (1) Required animals: healthy adult SD rats, male, 3 rats, 6-8 weeks old; weighing 200-300 g. • (2) Required equipments: analytical balance, animal weight scale, magnetic stirrer, refrigerated centrifuge, single-channel manual pipettor, etc. • (3) Required reagents: EDTA-Na2 anticoagulant, etc. 11.2 g of EDTA-Na2 was weighed and placed in a reagent flask, 100 mL of normal saline was added, and the flask was shook to completely dissolve it. After the preparation was completed, it was divided into 1.5 mL centrifuge tubes with 20 uL each for whole blood sample collection. • (3) About 10 mg of the sample to be tested was accurately weighed, 5% DMSO after conversion was added to dissolve, then 30% PEG400 and 65% (10% Hp-β-CD in PBS) were added for sonication, and vortex-mixed evenly to obtain a solution with a concentration of 1 mg/mL which is freshly prepared before use. • (4) 0.1 mL of sample was taken into a 1.5 mL centrifuge tube and stored at −80° C. for concentration analysis of drug administration solution. • (5) Animals were kept in rat cages, and fasted (not less than 10 h) from the day before the test(but water was allowed). The animals were separately weighed and marked at the tail on the day of the test. Blank blood was collected before administration. The blood was collected from tail vein. • (6) Route of administration: gavage (p.o.); dosage: 10 mg/kg; administration volume: 10 mL/kg. • (7) Operation process: Use the left hand with anti-bite gloves to catch the rat, make it stand upright, stretch the 16th gastric lavage needle from the throat of the mouth, insert the needle when feeling out no obvious resistance, and then inject the drug into the stomach. • (8) 0.2 ml of whole blood was collected from the tested animals and added into EDTA-Na2 anticoagulant tubes before administration and 0.5 h, 1 h, 2 h, 4 h, 6 h, 8 h, 12 h and 24 h after administration respectively. The tubes were reversed up and down for 3-4 times and mixed evenly, centrifuged at 4° C. at 10000 g for 5 min to separate plasma, and stored at −80° C. for testing. The blood was collected from tail vein. • (9) LC-MS/MS method was established to determine the concentration of original drug in plasma, the blood drug concentration-time curve was drawn, and the main pharmacokinetic parameters were calculated by non-compartment model. • (10) Pharmacokinetic parameters of T-32/T-105/T-253/T-272/T-273/T-277 were shown below in Table 2.

[2] = test system: human pleural mesothelioma cells NCI-H226; test: Cell anti-proliferation experiment (CCK8), NCI-H226; type: cell-based
Summary of the method: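 Viability was measured by CCK-8 (3 h, A450) after 3-day treatment with 0.15–333.33 nM compound in 0.1% DMSO medium. Curve-fitted IC50 was based on viability normalised to no-drug and cell-free controls.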

YAP-TEAD = YAP-TEAD inhibitor activity by Nano luciferase method (8xGTiiC-nLuc reporter in 293T cells); type: cell-based; conditions: Homo sapiens, HEK-293T, 48 hours incubation, read-out: Nano-luciferase detection (IC50)
Summary of the method: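 IC50 derived from nLuc reporter signal normalised to 0 nM wells, after 48 h, 37 °C compound exposure (1:3.16 series, highest 10,000 nM). Cells: 293T transfected with 8xGTiiC-nLuc/CMV-fLuc plasmid, plated at 2000 per well.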

| SMILES | IC50 [2] [nM] | IC50 (YAP-TEAD) [nM] | other results |
| --- | --- | --- | --- |
| CC(C)NC(=O)c1ccc2c(-c3ccc(C(F)(F)F)cc3)cccc2c1 [Control compound 1, reference compound] | – | – | AUC(0-t) [1]: 2180 ng·h/mL; Cmax [1]: 584 ng/mL; MRT last [1]: 2.92 h; Tmax [1]: 2 h |
| Cn1cc2c(=O)n(-c3ccc(C(F)(F)F)cc3)c3ccc(NC(=O)/C=C/CN4CCCCC4)cc3c2n1 [Example T-177] | ≤ 1000 | ≤ 1000 | – |
| CC(C)OC(=O)Nc1ccc2c(c1)c1nn(C)cc1c(=O)n2-c1ccc(C(F)(F)F)cc1 [Example T-194] | ≤ 1000 | ≤ 1000 | – |
| CN[S+]([O-])c1ccc2c(c1)c1ncn(CCOC)c1c(=O)n2-c1ccc(C(F)(F)F)cc1 (centres unmarked) [Example T-47] | ≤ 1000 | ≤ 1000 | – |
| C=CC(=O)Nc1ccc2c(c1)c1nn(C)cc1c(=O)n2-c1ccc(C(F)(F)F)cc1 [Example T-172] | ≤ 1000 | ≤ 1000 | – |
| CNS(=O)(=O)c1ccc2c(c1)-c1ncn(CCOC)c1CN2c1ccc(C(F)(F)F)cc1 [Example T-39] | ≤ 1000 | ≤ 1000 | – |
| C=CC(=O)Nc1ccc2c(c1)c1nn(C)cc1c(=O)n2-c1ccc(S(F)(F)(F)(F)F)cc1 [Example T-231] | ≤ 1000 | ≤ 1000 | – |
| Cc1c(C)c2cc(C(=O)N[C@@H](C)c3cccc(N)n3)ccc2n(-c2ccc(C(F)(F)F)cc2)c1=O [Example T-431] | ≤ 1000 | ≤ 1000 | – |
| C[C@@H](NC(=O)c1ccc2c(c1)c(=O)ccn2-c1ccc(C(F)(F)F)cc1)c1ccccn1 [Example T-34] | 1000 to 5000 | ≤ 1000 | – |
| C[C@H](NC(=O)c1ccc2c(c1)c1nn(C)cc1c(=O)n2-c1ccc(C(F)(F)F)cc1)c1cccc(Cl)n1 [Example T-132] | 1000 to 5000 | 1000 to 5000 | – |
| CNS(=O)(=O)c1ccc2c(c1)-c1nn(C)cc1CC(=O)N2c1ccc(C(F)(F)F)cc1 [Example T-51] | ≤ 1000 | ≤ 1000 | – |
| C[C@H](NC(=O)c1ccc2c(c1)c1c(c(=O)n2-c2ccc(C(F)(F)F)cc2)CCC1)c1ccccn1 [Example T-249] | ≤ 1000 | ≤ 1000 | – |
| C[C@H](NC(=O)c1ccc2c(c1)cc(C(F)F)c(=O)n2-c1ccc(C(F)(F)F)cc1)c1cccc(N)n1 [Example T-417] | ≤ 1000 | ≤ 1000 | – |
| C[C@H](NC(=O)c1ccc2c(c1)c1nn(C)cc1c(=O)n2-c1ccc(C(F)(F)F)cc1)c1cccnc1 [Example T-146] | 1000 to 5000 | 1000 to 5000 | – |
| C[C@H](NC(=O)c1ccc2c(c1)c1cnccc1c(=O)n2-c1ccc(C(F)(F)F)cc1)c1cccc(N)n1 [Example T-434] | ≤ 1000 | ≤ 1000 | – |
| C[C@H](NC(=O)c1ccc2c(c1)c1cscc1c(=O)n2-c1ccc(S(F)(F)(F)(F)F)cc1)c1ccccn1 [Example T-274] | ≤ 1000 | ≤ 1000 | – |
| C[C@H](NC(=O)c1ccc2c(c1)c1nocc1c(=O)n2-c1ccc(C(F)(F)F)cc1)c1ccccn1 [Example T-395] | ≤ 1000 | ≤ 1000 | – |
| C[C@H](NC(=O)c1ccc2c(c1)c1ncncc1c(=O)n2-c1ccc(C(F)(F)F)cc1)c1ccccn1 [Example T-332] | ≤ 1000 | ≤ 1000 | – |
| C[C@H](NC(=O)c1cnc2c(c1)c1cc(F)ccc1c(=O)n2-c1ccc(C(F)(F)F)cc1)c1ccccn1 [Example T-407] | ≤ 1000 | ≤ 1000 | – |
| C=CC(=O)Nc1ccc2c(c1)c1nscc1c(=O)n2-c1ccc(C(F)(F)F)cc1 [Example T-418] | ≤ 1000 | ≤ 1000 | – |
| N#CC1CN(C(=O)c2ccc3c(ccc(=O)n3-c3ccc(C(F)(F)F)cc3)c2)C1 [Example T-21] | 1000 to 5000 | 1000 to 5000 | – |
| C=CC(=O)Nc1cnc2c(c1)c1cscc1c(=O)n2-c1ccc(C(F)(F)F)cc1 [Example T-240] | ≤ 1000 | ≤ 1000 | – |
| C=CC(=O)Nc1cnc2c(c1)c1nn(C)cc1c(=O)n2-c1ccc(C(F)(F)F)cc1 [Example T-241] | ≤ 1000 | ≤ 1000 | – |
| CNS(=O)(=O)c1ccc2c(c1)c1cscc1c(=O)n2-c1ccc(C(F)(F)F)cc1 [Example T-265] | ≤ 1000 | ≤ 1000 | – |
